Among the data in patent US4250178A, “Amides derived from carboxyl-5 pyrimidines” (Delalande S.A., priority 1978, dated 1981) are ED50 and LD50 values, retold here.

SMILES strings stand for the structures.

In series [1] the test system is apomorphine straightening. The series can be described thus: test of antagonism to apomorphine straightening in mice, intraperitoneal (Gouret). The settings on record: Mus musculus, ip, read-out: Apomorphine straightening ED 50. The class given is in vivo.
Series [2] can be described thus: acute toxicity in mice, intraperitoneal (Miller and Tainter). The settings on record: mouse, in vivo, ip, read-out: Acute toxicity (mice) LD 50. The text has this:
The acute toxicity was studied in mice intraperitoneally and the lethal doses estimated according to the method described by Miller and Tainter in Proc. Soc. Exper.

Take `CCN(CC)CCNC(=O)c1cnc(N)nc1OC` [76.0745]: the ED50 in series [1] worked out at 30 mg/kg. For the same molecule, in series [2], the LD50 is 650 mg/kg.

As to `CCN1CCCC1CNC(=O)c1cnc(N)nc1OC` (stereo not shown) [76.0843], in series [1], the ED50 stood at 6 mg/kg. Besides, the LD50 in series [2] came to 300 mg/kg.

`COc1ccccc1N1CCN(CCNC(=O)c2cnc(N)nc2OC)CC1` [76.0994]: the ED50 in series [1] was 3 mg/kg. For the same molecule, the LD50 in series [2] came out at 150 mg/kg.

Consider `COc1nc(N)ncc1C(=O)NC1CCN(Cc2ccccc2)CC1` [77.0208], for which, in series [1], the ED50 is 3.5 mg/kg. Besides, in series [2], the LD50 is 500 mg/kg.

For `CCN(CCNC(=O)c1cnc(N)nc1OC)Cc1ccccc1` [77.0489], the ED50 in series [1] stood at 3 mg/kg. For the same molecule, in series [2], the LD50 was 330 mg/kg.

`CCOc1nc(N)ncc1C(=O)NCCN(CC)CC` [77.0508]: the ED50 in series [1] worked out at 30 mg/kg. In series [2], the LD50 was 300 mg/kg.

As for `COc1nc(N)ncc1C(=O)NCCN(C)Cc1ccccc1` [77.0512, 1-[5-(2-amino 4-methoxypyrimidinyl)carboxamido] 2-[N-methyl N-benzylamino] ethane], the ED50 in series [1] stood at 10 mg/kg. Further, in series [2], the LD50 turned out to be 400 mg/kg.

Consider `CCOc1nc(N)ncc1C(=O)NCC1CCCN1CC` (stereo not shown) [77.0540], for which the ED50 in series [1] stood at 3 mg/kg. Besides, the LD50 in series [2] was 150 mg/kg.

Consider `COc1nc(N)ncc1C(=O)NCCNc1ccccc1` [77.0580], for which, in series [1], the ED50 was 30 mg/kg. For the same molecule, in series [2], the LD50 is 400 mg/kg.

`CCCOc1nc(N)ncc1C(=O)NCC1CCCN1CC` (stereo not shown) [77.0621]: the ED50 in series [1] was determined as 15 mg/kg. Further, the LD50 in series [2] amounted to 150 mg/kg.

Consider `CCN(CC)CCNC(=O)c1cnc(C)nc1OC` [77.0766], for which, in series [1], the ED50 is 12 mg/kg. Also, the LD50 in series [2] was 300 mg/kg.

With `CCN1CCCC1CNC(=O)c1cnc(C)nc1OC` (stereo not shown) [77.0805], in series [1], the ED50 came to 7 mg/kg. The LD50 in series [2] turned out to be 200 mg/kg.

On to `CCN(CC)CCNC(=O)c1cnc(SC)nc1OC` [77.0806], for which the ED50 in series [1] came to 30 mg/kg. In series [2], the LD50 amounted to 150 mg/kg.

For `CCN1CCCC1CNC(=O)c1cncnc1OC` (stereo not shown) [77.0807], in series [1], the ED50 was determined as 18.5 mg/kg. In addition, the LD50 in series [2] was determined as 300 mg/kg.

Turning to `CCN1CCCC1CNC(=O)c1cnc(SC)nc1OC` (stereo not shown) [77.0840], in series [1], the ED50 came out at 10 mg/kg. In addition, the LD50 in series [2] was 95 mg/kg.

Regarding `COc1nc(N)ncc1C(=O)NCCN1CCc2ccccc2C1` [77.0862, 1-[5-(2-amino 4-methoxypyrimidinyl)carboxamido] 2-[(tetrahydro 1,2,3,4)isoquinolin-2-yl] ethane], the ED50 in series [1] is 30 mg/kg. Moreover, the LD50 in series [2] came out at 300 mg/kg.

Regarding `CCN1CCCC1CNC(=O)c1cnc(N)nc1OC(C)C` (stereo not shown) [77.0871], the ED50 in series [1] was determined as 30 mg/kg. Also, in series [2], the LD50 worked out at 170 mg/kg.

As to `CC(C)Oc1nc(N)ncc1C(=O)NC1CCN(Cc2ccccc2)CC1` [77.0872], in series [1], the ED50 amounted to 11 mg/kg. Also, in series [2], the LD50 is 115 mg/kg.

As to `COc1nc(C)ncc1C(=O)NC1CCN(Cc2ccccc2)CC1` [77.0878], the ED50 in series [1] is 10 mg/kg. The LD50 in series [2] came to 150 mg/kg.

With `COc1nc(N)ncc1C(=O)NCC1CCCN1Cc1ccccc1` (stereo not shown) [77.0880], the ED50 in series [1] was 9 mg/kg. Further, the LD50 in series [2] is 180 mg/kg.

As for `COc1ncncc1C(=O)NC1CCN(Cc2ccccc2)CC1` [77.0886], the ED50 in series [1] is 17.5 mg/kg. Further, in series [2], the LD50 came out at 125 mg/kg.

With `COc1nc(N)ncc1C(=O)NC1CCN(Cc2ccccc2)C1` (stereo not shown) [77.0958], the ED50 in series [1] is 1.5 mg/kg. Further, in series [2], the LD50 turned out to be 150 mg/kg.

In the case of `COc1nc(N)ncc1C(=O)NC1CCN(C2CCCCC2)C1` (stereo not shown) [77.1006], the ED50 in series [1] came to 3 mg/kg. Also, in series [2], the LD50 was 175 mg/kg.

`COc1nc(N(C)C)ncc1C(=O)NC1CCN(Cc2ccccc2)CC1` [77.1011]: the ED50 in series [1] turned out to be 2.7 mg/kg. Besides, the LD50 in series [2] amounted to 25 mg/kg.

Consider `CCCCN1CCCC1CNC(=O)c1cnc(N)nc1OC` (stereo not shown) [77.1012], for which, in series [1], the ED50 was found to be 7 mg/kg. Also, in series [2], the LD50 was 110 mg/kg.

Consider `COc1nc(N)ncc1C(=O)N1CC1` [77.1017], for which the ED50 in series [1] is 15 mg/kg. Also, in series [2], the LD50 turned out to be 300 mg/kg.

As to `COc1nc(N)ncc1C(=O)NCC1CCCN1Cc1ccc(F)cc1` (stereo not shown) [77.1047], the ED50 in series [1] came to 4.5 mg/kg. Besides, the LD50 in series [2] turned out to be 130 mg/kg.

On to `CCN1CCCC1CNC(=O)c1cnc(N(C)C)nc1OC` (stereo not shown) [77.1057], for which the ED50 in series [1] was determined as 1.3 mg/kg. In addition, the LD50 in series [2] was 130 mg/kg.

As for `CCN(CC)CCNC(=O)c1cnc(N(C)C)nc1OC` [77.1075], in series [1], the ED50 is 16 mg/kg. Besides, the LD50 in series [2] is 200 mg/kg.

As for `CCN1CCCC1CNC(=O)c1cnc(OC)nc1OC` (stereo not shown) [77.1243], the ED50 in series [1] is 15 mg/kg. In addition, the LD50 in series [2] was 150 mg/kg.

For the molecule `COc1ncc(C(=O)NC2CCN(Cc3ccccc3)CC2)c(OC)n1` [77.1244], in series [1], the ED50 came out at 10 mg/kg. Besides, the LD50 in series [2] was found to be 180 mg/kg.

Consider `CCN1CCCC1CNC(=O)c1cc(S(N)(=O)=O)ccc1OC` (stereo not shown) [SULPIRIDE, Sulpiride, reference compound], for which the ED50 in series [1] was 37 mg/kg.

With `CCCN1CCCC1CNC(=O)c1cnc(N)nc1OC` (stereo not shown) [compound 771120], the ED50 in series [1] turned out to be 3.4 mg/kg. In series [2], the LD50 turned out to be 180 mg/kg.

In the case of `CCN1CCCC1CNC(=O)c1cnc(NC)nc1OC` (stereo not shown) [compound 771226], the ED50 in series [1] stood at 1.4 mg/kg. The LD50 in series [2] is 110 mg/kg.

Regarding `CNc1ncc(C(=O)NC2CCN(Cc3ccccc3)CC2)c(OC)n1` [compound 771261], in series [1], the ED50 came out at 2.4 mg/kg. Moreover, the LD50 in series [2] worked out at 70 mg/kg.

Turning to `COc1nc(N)ncc1C(=O)NC1CCN(Cc2ccc(F)cc2)C1` (stereo not shown) [compound 771274], in series [1], the ED50 worked out at 1.4 mg/kg. For the same molecule, the LD50 in series [2] was 100 mg/kg.

For `COc1nc(N)ncc1C(=O)NCC1CCCN1C` (stereo not shown) [compound 780079], the ED50 in series [1] came to 11 mg/kg. In series [2], the LD50 came to 225 mg/kg.

On to `COc1nc(C)ncc1C(=O)NCc1cccn1C` [compound 780204], for which the ED50 in series [1] was found to be 50 mg/kg. Besides, the LD50 in series [2] amounted to 400 mg/kg.

In the case of `COc1nc(C)ncc1C(=O)NC1CCN(Cc2ccccc2)C1` (stereo not shown) [compound 780326], in series [1], the ED50 was 5.8 mg/kg. The LD50 in series [2] turned out to be 130 mg/kg.

`CCN(CCNC(=O)c1cnc(C)nc1OC)Cc1ccccc1` [compound 780327]: in series [1], the ED50 is 7 mg/kg. In series [2], the LD50 was 170 mg/kg.

Turning to `CCOc1nc(C)ncc1C(=O)NCC1CCCN1CC` (stereo not shown) [compound 780336], in series [1], the ED50 stood at 1.8 mg/kg. Also, in series [2], the LD50 stood at 170 mg/kg.

`CCCOc1nc(C)ncc1C(=O)NCC1CCCN1CC` (stereo not shown) [compound 780432]: the ED50 in series [1] was determined as 7.5 mg/kg. Moreover, the LD50 in series [2] is 170 mg/kg.

For the molecule `CCCCN1CCCC1CNC(=O)c1cnc(C)nc1OC` (stereo not shown) [compound 780457], the ED50 in series [1] came out at 17 mg/kg. The LD50 in series [2] was found to be 160 mg/kg.

In the case of `COc1nc(C)ncc1C(=O)NCC1CCCN1Cc1ccccc1` (stereo not shown) [compound 780458], the ED50 in series [1] was found to be 13 mg/kg. The LD50 in series [2] was determined as 140 mg/kg.

`COc1nc(C)ncc1C(=O)NCC1CCCN1Cc1ccc(F)cc1` (stereo not shown) [compound 780505]: in series [1], the ED50 was determined as 15 mg/kg. Further, the LD50 in series [2] amounted to 155 mg/kg.

In the case of `COc1ccccc1N1CCN(CCNC(=O)c2cnc(C)nc2OC)CC1` [compound 780521], in series [1], the ED50 is 5.25 mg/kg. The LD50 in series [2] was 140 mg/kg.

In the case of `COc1nc(C)ncc1C(=O)NCCN1CCN(c2ccccc2)CC1` [compound 780522], the ED50 in series [1] amounted to 10 mg/kg. Further, in series [2], the LD50 was 130 mg/kg.

Take `CCCN1CCCC1CNC(=O)c1cnc(C)nc1OC` (stereo not shown) [compound 780552]: the ED50 in series [1] came out at 12.5 mg/kg. Also, the LD50 in series [2] came to 140 mg/kg.

With `COc1nc(C)ncc1C(=O)NC1CCN(Cc2ccc(F)cc2)C1` (stereo not shown) [compound 780560], in series [1], the ED50 worked out at 3 mg/kg. For the same molecule, the LD50 in series [2] turned out to be 100 mg/kg.
